{
  "source": "paper PMC10135567",
  "about": "“New Indole-3-Propionic Acid and 5-Methoxy-Indole Carboxylic Acid Derived Hydrazone Hybrids as Multifunctional Neuroprotectors” (Antioxidants, 2023)",
  "key": {"[1]": {"system": "isolated rat-brain synaptosomes", "assay": "6-OHDA-induced neurotoxicity in isolated rat synaptosomes, GSH level", "type": "cell-based", "settings": "10 µM pre-incubation 30 min, then 150 µM 6-OHDA 1 h", "experimental": "This neurotoxicity model was based on the metabolism and auto-oxidation of 6-hydroxy dopamine responsible for the reactive oxygen species and quinones generation, ultimately leading to neurotoxicity and neurodegeneration. The experiment was performed by pre-incubation of the synaptosomes with 10 µM of the compounds for 30 min, followed by the addition of 150 µM 6-hydroxy dopamine for induction of neurotoxicity. After 1 h, they were centrifuged twice for 1 min at 15,000 × g. After the second wash, the precipitates were resolved with buffer B and glucose."}, "[2]": {"system": "zonula occludens-1 (ZO-1), tight junctions between bEnd3 cells", "assay": "Immunofluorescence of ZO-1 (tight junctions) in bEnd3 cells", "type": "cell-based, mouse", "settings": "90 min", "experimental": "Immunofluorescence of zonula occludens-1 (ZO-1) was performed to determine the in vitro effect of the compounds on tight junctions (TJs) between bEnd3 cells. The experiment was conducted simultaneously with the permeability assay. Briefly, cells were seeded on cover slides in 24-well plates at a concentration of 3.5 × 10^4 cells/well and incubated for 3–4 d at 37 °C and 5% CO2 in a humidified atmosphere, until they reached 100% confluence. The cells were then treated with 10 and 50 µM concentrations of the compounds for 90 min. After the allotted treatment time, the cells were fixed with ice-cold acetone at −20 °C for 10 min; blocked with 1% bovine serum albumin (BSA, cat. no. 9048-46-8, Acros Organics, Thermo Fischer Scientific, Waltham, MA, USA) in PBS, containing 0.1% Tween® 20 (cat. no. P1379, Sigma-Aldrich Co. LLC, St. Louis, MO, USA); and labeled with anti-ZO-1 (rabbit polyclonal antibody, 1:500, cat. no. ab96587, Abcam, Cambridge, UK) at 4 °C overnight. The slides were then incubated with a secondary donkey anti-rabbit Alexa Fluor™ 555 antibody (1:1000, cat. no. 4413S, Molecular Probes, Thermo Fischer Scientific, Waltham, MA, USA) for 1 h at room temperature (RT) in the dark. […] Fluorescence microscopy was performed on a spinning disk confocal microscope system (Andor Dragonfly 505, Oxford Instruments, Abingdon, UK) with 60 × oil NA 1.4 objective, with em./ex. = 561/617 nm for ZO-1 and 405/445 nm for DAPI. The obtained data were analyzed with Fiji and compiled via the FigureJ plugin [46].\nTo further explore the neuroprotective effect of the compounds, we tested their ability to influence the BBB and its permeability, utilizing a static BBB model with brain microvascular endothelial cell line bEnd3 [36], as it would be essential for the compounds to pass the BBB and protect the neuronal cells. […] Here, we determined any changes in the permeability of the BBB by imitating an endothelial barrier via a static BBB model of bEnd3 cells (Figure 11a,c,e). […]"}, "[3]": {"system": "isolated rat-brain synaptosomes", "assay": "Level of reduced glutathione (GSH) in isolated synaptosomes, substances administered alone", "settings": "100 µM", "experimental": "Preparation of the synaptosomes was carried out by multiple centrifugations using the Percoll gradient. Homogenization of the brains was performed in 10 volumes of cold buffer 1, which contained 5 mM HEPES and 0.32 M sucrose (pH = 7.4), followed by centrifugation at different speeds. For preparation of the gradient, the synaptosomes were isolated by Percoll reagent. Synaptosomes were resuspended and incubated in buffer 2, which contained 290 mM NaCl, 0.95 mM MgCl2x6H2O, 10 mM KCl, 2.4 mM CaCl2xH2O, 2.1 mM NaH2PO4, 44 mM HEPES, and 13 mM D-glucose. Incubations were performed in a 5% CO2 + 95% O2 atmosphere. The method of Lowry et al., using bovine serum albumin as a standard content, was applied for determination of synaptosomal protein [51].\nAfter the treatment with the tested compounds, the glutathione levels of the synaptosomes were determined with an Ellman reagent (DTNB). The GSH levels were evaluated based on the synaptosomal sediment, precipitated with 5% TCA, and centrifuged for 10 min at 4000× g. GSH levels in the supernatant were measured spectrophotometrically at 412 nm by a Spectro UV-vis split spectrophotometer (LaboMed. Inc., Los Angelis, California, USA). […]"}, "[4]": {"assay": "Stability by UV-vis measurements at different pH", "type": "physicochemical", "settings": "50 µM, pH 2, 4.5, 7.4 and 8.4, after 1, 2, 3 and 24 h", "experimental": "The stability of the compounds was also considered a potential issue. Therefore, selected compounds (3a, 3d, 5d, and 5e at a concentration of 50 µM) were studied by UV-vis measurements under different pH conditions, including pH 2, 4.5, 7.4, and 8.4, to represent different physiological (gastric, intestinal, etc.) conditions."}},
  "note": "“Also recorded” adds a separate entry of the source.",
  "data": [
    {"molecule": "COc1ccc2[nH]c(C(=O)NN=Cc3cccc(O)c3O)cc2c1", "note": "[Compound 5a, N′-(2,3-Dihydroxybenzylidene)-5-methoxy-1H-indole-2-carbohydrazide]", "values": [
      {"measurement": "GSH level preserved, as compared to 6-OHDA", "setting": "[1]", "result": 40, "unit": "%"},
      {"measurement": "effect on tight junctions (ZO-1 distribution)", "setting": "[2]; 10 µM", "result": "without affecting the TJs"}
    ]},
    {"molecule": "COc1ccc2[nH]cc(CCNC(C)=O)c2c1", "note": "[Melatonin]", "values": [
      {"measurement": "reduction of GSH level vs. non-treated synaptosomes", "setting": "[3]", "result": "did not decrease"},
      {"measurement": "GSH level preserved, as compared to 6-OHDA", "setting": "[1]", "result": 90, "unit": "%"}
    ]},
    {"molecule": "COc1ccc2[nH]c(C(=O)NN=Cc3ccc(O)c(OC)c3)cc2c1", "note": "[Compound 5d, N′-(4-Hydroxy-3-methoxybenzylidene)-5-methoxy-1H-indole-2-carbohydrazide]", "values": [
      {"measurement": "GSH level preserved, as compared to 6-OHDA", "setting": "[1]", "result": 40, "unit": "%"}
    ]},
    {"molecule": "COc1cc(C=NNC(=O)CCc2c[nH]c3ccccc23)ccc1O", "note": "[Compound 3d, N′-(4-Hydroxy-3-methoxybenzylidene)-3-(1H-indol-3-yl)propanehydrazide]", "values": [
      {"measurement": "stability (UV-vis spectra over time)", "setting": "[4]", "result": "stable over time"}
    ]},
    {"molecule": "COc1ccc(C=NNC(=O)c2cc3cc(OC)ccc3[nH]2)c(O)c1", "note": "[Compound 5e, N′-(2-Hydroxy-4-methoxybenzylidene)-5-methoxy-1H-indole-2-carbohydrazide]", "values": [
      {"measurement": "effect on tight junctions (ZO-1 distribution)", "setting": "[2]; 10 and 50 µM", "result": "appears to disrupt TJs"},
      {"measurement": "stability (UV-vis spectra over time)", "setting": "[4]", "result": "stable over time; also recorded: very good stability"}
    ]},
    {"molecule": "COc1cc(C=NNC(=O)CCc2c[nH]c3ccccc23)cc(OC)c1O", "note": "[Compound 3f, N′-(4-Hydroxy-3,5-dimethoxybenzylidene)-3-(1H-indol-3-yl)propanehydrazide]", "values": [
      {"measurement": "reduction of GSH level vs. non-treated synaptosomes", "setting": "[3]", "result": 40, "unit": "%"}
    ]},
    {"molecule": "COc1ccc2[nH]c(C(=O)NN=Cc3ccc(O)c(O)c3)cc2c1", "note": "[Compound 5b, N′-(3,4-Dihydroxybenzylidene)-5-methoxy-1H-indole-2-carbohydrazide]", "values": [
      {"measurement": "effect on tight junctions (ZO-1 distribution)", "setting": "[2]; 10 µM", "result": "without affecting the TJs"}
    ]}
  ]
}
